Literature values as cited in patent US5639785A, “Methods for the treatment of baldness and gray hair using isoflavonoid derivatives” (priority 1995, dated 1997).
Where two headings read alike, the source gives them in different places.

Assays:
patients with hair loss = details: after four months of treatment
[1] = test system: Du-145 human prostate cancer cell line
[2] = test system: LNCaP human prostate cancer cell line
[3] = test system: alcohol dehydrogenase (ADH) class I isozymes
[4] = biological target: r1 r1 ADH isozyme (alcohol dehydrogenase class I) (Homo sapiens, UniProt P00326); details: competitive with respect to ethanol, uncompetitive with respect to NAD
[5] = test system: HL60 human leukemia cells
[6] = biological target: r2 r2 ADH isozyme (alcohol dehydrogenase class I) (Homo sapiens, UniProt P00326, I350V/R272Q); details: competitive with respect to ethanol, uncompetitive with respect to NAD
[7] = biological target: T1, aldehyde dehydrogenase (ALDH) II and II of human mitochondria (Homo sapiens, UniProt P05091)
T1 sequence (P05091 18-517): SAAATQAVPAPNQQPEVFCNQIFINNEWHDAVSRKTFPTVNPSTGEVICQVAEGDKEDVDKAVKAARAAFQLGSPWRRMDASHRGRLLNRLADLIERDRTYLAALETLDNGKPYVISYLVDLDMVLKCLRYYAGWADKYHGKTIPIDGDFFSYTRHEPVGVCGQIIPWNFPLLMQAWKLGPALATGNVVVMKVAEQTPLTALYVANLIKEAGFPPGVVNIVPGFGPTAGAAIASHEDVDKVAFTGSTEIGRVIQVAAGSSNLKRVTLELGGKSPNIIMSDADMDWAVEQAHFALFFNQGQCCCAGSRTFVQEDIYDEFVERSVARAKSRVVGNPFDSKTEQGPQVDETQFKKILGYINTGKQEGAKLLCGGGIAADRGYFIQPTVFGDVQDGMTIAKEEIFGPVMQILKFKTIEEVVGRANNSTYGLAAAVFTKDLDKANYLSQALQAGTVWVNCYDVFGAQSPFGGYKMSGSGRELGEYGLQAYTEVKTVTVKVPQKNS

r2 r2 ADH isozyme (alcohol dehydrogenase class I), sequence (P00326 2-375 R272Q/I350V limits assumed): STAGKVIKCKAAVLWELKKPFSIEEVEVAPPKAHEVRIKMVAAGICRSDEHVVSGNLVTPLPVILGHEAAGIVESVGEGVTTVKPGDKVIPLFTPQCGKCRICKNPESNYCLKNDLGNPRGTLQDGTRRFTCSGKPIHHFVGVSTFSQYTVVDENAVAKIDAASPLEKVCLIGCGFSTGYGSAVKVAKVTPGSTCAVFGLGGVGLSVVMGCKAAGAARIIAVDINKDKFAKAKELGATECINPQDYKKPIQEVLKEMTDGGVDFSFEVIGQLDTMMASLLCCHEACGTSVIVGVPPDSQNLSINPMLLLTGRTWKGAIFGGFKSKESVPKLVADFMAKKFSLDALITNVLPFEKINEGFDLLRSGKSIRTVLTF
r1 r1 ADH isozyme (alcohol dehydrogenase class I), sequence (P00326 2-375 limits assumed): as the sequence (P00326 2-375 R272Q/I350V limits assumed) above, with Q271R, V349I counted along it

| SMILES | inhibition of serum and epidermal growth factor-stimulated growth [1] | inhibition of serum and epidermal growth factor-stimulated growth [2] | inhibition of ADH [3] | free choice ethanol intake (Syrian Golden hamsters; Syrian Golden hamsters) | also measured |
| --- | --- | --- | --- | --- | --- |
| Nc1cc(N2CCCCC2)nc(N)[n+]1[O-] [Minoxidil] | – | – | – | – | patients who achieve minimal regrowth of hair (patients with hair loss): approximately 25% |
| COc1ccc(-c2coc3cc(O)cc(O)c3c2=O)cc1 [biochanin A] | inhibited | inhibited | – | – | – |
| O=c1c(-c2ccc(O)cc2)coc2cc(O)ccc12 [daidzein, 7-hydroxy-3-(4-hydroxyphenyl)-4-H-1-benzopyranyl-4-one] | not | not | reversible inhibitors | suppressed | Ki [4]: ~1 µM; effect on body weight, water or food intake (Syrian Golden hamsters; hamster, in vivo): did not significantly affect; concentration that inhibited the growth of HL60 cells [5]: greater than 10 μg/ml; Ki [6]: ~1 µM |
| O=c1c(-c2ccc(O)cc2)coc2cc(O[C@@H]3O[C@H](CO)[C@@H](O)[C@H](O)[C@H]3O)ccc12 [daidzin] | – | – | did not inhibit | suppressed | effect on body weight, water or food intake (Syrian Golden hamsters; Syrian Golden hamsters): did not significantly affect; inhibition of ALDH [7]: potent inhibitor |
| O=c1c(-c2ccc(O)cc2)coc2cc(O)cc(O)c12 [genistein] | inhibited | inhibited | reversible inhibitors | – | – |
